Source: patent publication US20260098283A1, “In Vitro Bioproduction of Specific Chain Legnth Poly(hydroxyalkanoate) Monomers” (Kimberly-Clark Worldwide, Inc., priority 2022, published 2026)
One block for each compound: values may come before it.

Columns and labels:
[1] = tested on: WP_068692787 enzyme (long chain fatty acid-CoA synthetase); assay: formation of the CoA moiety followed by pyrophosphate formation, Example 4; type: biochemical, Thermobifida halotolerans; settings: Example 4, FIG. 16; result in words
Text: (§1) • Sources: Enzyme sequences were identified by searching the NCBI Protein or Identical Protein Group databases. For this example, it was decided to focus primarily on the thermohalophile Thermobifida halotolerans. Sequences and accession numbers for the enzymes used in this work are listed in Appendix I. All general laboratory chemicals and long chain fatty acids were purchased from Millipore-Sigma Chemical Company (St. Louis, MO). Cloning materials and protein purification supplies were from New England Biolabs (Beverly, MA). • Enzyme cloning: The amino acid sequence for each enzyme was searched for potential signal sequences. If one was present it was removed from the sequence. […] 100 U of TEV protease was added per mg of enzyme (approximate ratio of 1:100 (w/w). The reaction was allowed to proceed for 16 h at 4° C. The mixture was passed over a charged nickel column. One column volume of eluent was collected representing purified tag-free enzyme. • Enzyme assays: The formation of long-chain fatty acid-CoA was monitored by measuring the amount of pyrophosphate released from the reaction using the MAK 168 pyrophosphate assay kit from Millipore-Sigma Chemical Co (St. Louis, MO). The formation of PHA was monitored by the increase in optical density (650 nm) as a function of time in a Molecular Devices SpectraMax 5 spectrometer. […]

[2] = tested on: fatty acid-CoA ligase QKS24074; assay: substrate chain length preference of fatty acid-CoA ligase QKS24074; type: biochemical, Halomonas titanicae; settings: for percent activity: substrate chain length preference distribution, percent activity vs. carbon length, enzyme QKS24074
Text: (§2) • Sources: Enzyme sequences were identified by searching the NCBI Protein or Identical Protein Group databases. For this example, it was decided to focus primarily on the thermohalophile Thermobifida halotolerans. Sequences and accession numbers for the enzymes used in this work are listed in Appendix I. All general laboratory chemicals and long chain fatty acids were purchased from Millipore-Sigma Chemical Company (St. Louis, MO). Cloning materials and protein purification supplies were from New England Biolabs (Beverly, MA). • Enzyme cloning: The amino acid sequence for each enzyme was searched for potential signal sequences. If one was present it was removed from the sequence. A histine tag and a TEV protease cleavage sequence were added to the N-ter of each enzyme. This sequence was MHHHHHHENLYFQS to assist in purification (via an NTA-Ni column) and subsequent removal of the hexahistidine tag. Each recombinant enzyme began with an N-ter serine residue as TEV protease cleaves after the glutamine (Q). Each amino acid sequence was back translated to an E. coli codon optimized nucleic acid sequence and was synthesized using standard laboratory gene synthesis techniques. The insert was digested with Nde I and cloned into the similarly digested expression vector pET11d. Final DNA sequences were verified by DNA sequencing. Expression plasmids were used to transform E. coli Origami2 (DE3) for expression. • Protein expression and purification: A single colony was used to inoculate 5.0 mL of LBamp media ([…] ampicillin concentration). Bacteria were grown for 12 hours at 37° C. and this culture was used to inoculate 500 mL of LBamp media. This culture was grown at 37° C. until the optical density (600 nm) reached 0.4 (typically in 3-5 hours). Protein expression was induced by the addition of IPTG to a final concentration of 1 mM. Cells were grown for 12 hours at 37° C. Cells were harvested by centrifugation at 5,000×g for 20 minutes, and frozen at −80° C. until use (minimal time frozen was 24 hours). Cells were thawed on ice and were resuspended in Buffer A (0.5 M NaCl, 20 mM Tris-HCl, 5 mM imidazole, pH 7.9) (typically 1 mL per gram of cells). Cells were disrupted via two passes through a French Press followed by centrifugation at 30,000×g for 30 minutes. The crude extract was mixed with an equal volume of charged His-Bind resin slurry and the mixture was poured into 5 cm×4.9 cc column. The column was washed with 10 column volumes of wash buffer (0.5 M NaCl, 20 mM Tris-HCl, 60 mM imidazole, pH 7.9) at a flow rate of 0.2 mL/min. Enzyme was eluted from the column with the addition of 3 column volumes of 0.5 M NaCl, 20 mM Tris-HCl, 1.0 M imidazole, pH 7.9. Fractions were collected (1.0 mL). Fractions containing enzyme were pooled after analysis by SDS PAGE. The pooled fractions were applied to a 70 cmp×4.9 cc Sephadex G-75 column (10 mM Tris-HCl, PH 7.5, 1 mM EDTA). Fractions containing homogeneous protein were pooled (after inspection by SDS PAGE) and concentrated to 5 mg/ml via Centricon filters. Enzyme was stored frozen at −20° C. until use. The TRX-histidine tag region was removed from the enzymes using TEV protease. Protein was diluted to 1.0 mg/ml into 10 mM Tris-HCl, pH 7.5, 25 mM NaCl. 100 U of TEV protease was added per mg of enzyme (approximate ratio of 1:100 (w/w). The reaction was allowed to proceed for 16 h at 4° C. The mixture was passed over a charged nickel column. One column volume of eluent was collected representing purified tag-free enzyme. • Enzyme assays: The formation of long-chain fatty acid-CoA was monitored by measuring the amount of pyrophosphate released from the reaction using the MAK 168 pyrophosphate assay kit from Millipore-Sigma Chemical Co (St. Louis, MO). The formation of PHA was monitored by the increase in optical density (650 nm) as a function of time in a Molecular Devices SpectraMax 5 spectrometer. The assay measures the increase in light scattering due to precipitating PHA formed during the reaction. […]

[3] = tested on: fatty acid-CoA ligase QKS26753; assay: substrate chain length preference of fatty acid-CoA ligase QKS26753; type: biochemical, Halomonas titanicae; settings: for percent activity: substrate chain length preference distribution, percent activity vs. carbon length, enzyme QKS26753
Text: as §2

[4] = tested on: fatty acid-CoA ligase QKS24113; assay: substrate chain length preference of fatty acid-CoA ligase QKS24113; type: biochemical, Halomonas titanicae; settings: for percent activity: substrate chain length preference distribution, percent activity vs. carbon length, enzyme QKS24113
Text: as §2

[5] = tested on: fatty acid-CoA ligase QKS23364; assay: substrate chain length preference of fatty acid-CoA ligase QKS23364; type: biochemical, Halomonas titanicae; settings: for percent activity: substrate chain length preference distribution, percent activity vs. carbon length, enzyme QKS23364
Text: as §2

[6] = tested on: fatty acid-CoA ligase QKS25406; assay: substrate chain length preference of fatty acid-CoA ligase QKS25406; type: biochemical, Halomonas titanicae; settings: for percent activity: substrate chain length preference distribution, percent activity vs. carbon length, enzyme QKS25406
Text: as §2

[7] = tested on: WP_068689753 enzyme (long chain fatty acid-CoA synthetase); assay: formation of the CoA moiety followed by pyrophosphate formation, Example 3; type: biochemical, Thermobifida halotolerans; settings: Example 3, FIG. 13; sole substrate
Text: as §1

[8] = tested on: fatty acid-CoA ligase; assay: long-chain fatty acid CoA ligase reaction time course, Example 5; type: biochemical, Halomonas titanicae; settings: Example 5, FIG. 20/21; 1.0 M NaCl, pH 7.5
Text: as §1, with “sequence. A histine tag and a TEV protease cleavage sequence were added to the N-ter of each enzyme. This sequence was MHHHHHHENLYFQS to assist in purification (via an NTA-Ni column) and subsequent removal of the hexahistidine tag. Each recombinant enzyme began with an N-ter serine residue as TEV protease cleaves after the glutamine (Q). Each amino acid sequence was back translated to an E. coli codon optimized nucleic acid sequence and was synthesized using standard laboratory gene synthesis techniques. The insert was digested with Nde I and cloned into the similarly digested expression vector pET11d. Final DNA sequences were verified by DNA sequencing.” for “sequence.”

[9] = tested on: overall 5-step reaction from long-chain fatty acid CoA to PHA; assay: formation of precipitating PHA, optical density 650 nm, Example 1; type: biochemical, Thermobifida halotolerans; settings: Example 1, FIG. 8; fatty acid as starting material
Text: as §2, with “Cells were thawed on ice and were resuspended in Buffer A (0.5 M NaCl, 20 mM Tris-HCl, 5 mM imidazole, pH 7.9) (typically 1 mL per gram of cells). Cells were disrupted via two passes through a French Press followed by centrifugation at 30,000×g for 30 minutes. The crude extract was mixed with an equal volume of charged His-Bind resin slurry and the mixture was poured into 5 cm×4.9 cc column. The column was washed with 10 column volumes of wash buffer (0.5 M NaCl, 20 mM Tris-HCl, 60 mM imidazole, pH 7.9) at a flow rate of 0.2 mL/min. Enzyme was eluted from the column with the addition of 3 column volumes of 0.5 M NaCl, 20 mM Tris-HCl, 1.0 M imidazole, pH 7.9. Fractions were collected (1.0 mL). Fractions containing enzyme were pooled after analysis by SDS PAGE. The pooled fractions were applied to a 70 cmp×4.9 cc Sephadex G-75 column (10 mM Tris-HCl, PH 7.5, 1 mM EDTA). Fractions containing homogeneous protein were pooled (after inspection by SDS PAGE) and concentrated to 5 mg/ml via Centricon filters. Enzyme was stored frozen at −20° C. until use. The TRX-histidine tag region was removed from the enzymes using TEV protease. Protein was diluted to 1.0 mg/ml into 10 mM Tris-HCl, pH 7.5, 25 mM NaCl.” left out, “spectrometer.” for “spectrometer. The assay measures the increase in light scattering due to precipitating PHA formed during the reaction.”

[10] = tested on: long-chain fatty acid CoA ligase; assay: long-chain fatty acid CoA ligase reaction time course, Example 1 (fatty acid loss, pyrophosphate formation); type: biochemical, Thermobifida halotolerans; settings: Example 1, FIG. 6/7; single fatty acid substrate
Text: as §1

[11] = tested on: five-step reaction from long-chain fatty acid CoA to PHA; assay: formation of precipitating PHA, optical density 650 nm, Example 5; type: biochemical, Halomonas titanicae; settings: Example 5, FIG. 22; fatty acid as starting material
Text: as §1, with “sequence. A histine tag and a TEV protease cleavage sequence were added to the N-ter of each enzyme. This sequence was MHHHHHHENLYFQS to assist in purification (via an NTA-Ni column) and subsequent removal of the hexahistidine tag. Each recombinant enzyme began with an N-ter serine residue as TEV protease cleaves after the glutamine (Q). Each amino acid sequence was back translated to an E. coli codon optimized nucleic acid sequence and was synthesized using standard laboratory gene synthesis techniques. The insert was digested with Nde I and cloned into the similarly digested expression vector pET11d. Final DNA sequences were verified by DNA sequencing.” for “sequence.”

SMILES: CCCCCCC(=O)O [Heptanoic acid]
- conversion into the CoA moiety [1]: readily converted

- percent activity [2]: 0.0%
- percent activity [3]: 100%
- percent activity [4]: 21.1%
- percent activity [5]: 100%
- percent activity [6]: 30.4%
SMILES: CCCCCCCCCCCCCCCC(=O)O [C14]

SMILES: CCCCCCCCCCCCCCCCCCCCCCCCCC(=O)O [hexacosanoic acid]
- completion of formation of the CoA moiety [7]: 240 min
- lag period of formation of the CoA moiety [7]: 50 min

- time to completion of the long-chain fatty acid CoA ligase reaction [8]: complete within two hours
- suitability of the enzyme for the fatty acid (optimal / possible / not possible) ([2]; result in words): much lower activity
- percent activity [2]: 21.0%
- suitability of the enzyme for the fatty acid (optimal / possible / not possible) ([3]; result in words): optimal enzymes
- percent activity [3]: 100%
- suitability of the enzyme for the fatty acid (optimal / possible / not possible) ([4]; result in words): much lower activity
- percent activity [4]: 5.2%
- suitability of the enzyme for the fatty acid (optimal / possible / not possible) ([5]; result in words): optimal enzymes
- percent activity [5]: 100%
- suitability of the enzyme for the fatty acid (optimal / possible / not possible) ([6]; result in words): much lower activity
- percent activity [6]: 11.6%
SMILES: CCCCCCCCCCCCCC(=O)O [C12, myristic acid]
- duration of linear formation of precipitating PHA after the lag [9]: 150 min
- lag before measurable increase in optical density (650 nm) [9]: approximately 50 minutes
- time to completion of the long-chain fatty acid CoA ligase reaction [10]: complete within two hours
- duration of linear formation of precipitating PHA after the lag [11]: 100 min
